Converted amounts (≈) assume the structure as drawn.
Experiments:
platelet aggregation = assay: In vitro inhibitory activity of platelet aggregation (ADP-induced, platelet-rich plasma); format: cell-based, rabbit (Japanese domestic white male rabbits); conditions: Oryctolagus cuniculus, rabbit PRP, 10 μM (final) ADP, pre-incubated at 37° C. for 2 minutes, read-out: IC50 (minimum concentration of the drug which inhibited more than 50% of platelet aggregation)
Procedure: The in vitro platelet aggregation imhibiting activity of the compounds of the invention were examined by using rabbits. Blood was withdrawn from the ear vein of Japanese domestic white male rabbits weighing 2.5 to 3.5 kg. A mixture of a 3.8% trisodium citrate solution and the blood in a ratio of 1:9 was centrifuged at a speed of 1000 rpm for 10 minutes. The upper layer was separated as platelet-rich plasma (PRP). The lower layer was further centrifuged at a speed of 28000 rpm for 10 minutes. The upper layer was separated as platelet-poor plasma (PPP). The number of platelets was adjusted to 6×10^5 /μl to 7×10^5 […] by diluting the PRP with PPP. 25 microliters of the test compounds prepared as shown below was added in an amount of 25 to 250 microliters of PRP after the adjustment, and the mixture was pre-incubated at 37° C. for 2 minutes, and then 10 μM (final) of ADP was added. By using an aggregometer, changes in transmission were recorded.
The drug was dissolved in ethanol to a concentration of 10 mg/ml, and successively diluted with phosphate buffer (pH 7.4) prior to use.
The rate of inhibition of platelet aggregation was determined from the following equation. [formula] To : the transmittance of the system containing the phosphate buffer, T: The transmittance of the system to which the test drug was added. […]

[1] = system: blood pressure and heart beat rate of rats; assay: Measurement of the hypotensive activity (blood pressure and heart beat rate, i.v., anesthetized rats); format: in vivo, rat (male wister rats); conditions: Rattus norvegicus, iv, urethane/α-chloralose anesthesia; for ED10: read-out: H-ED10 (dosage which caused a 10% increase of the heart rate); for ED20: read-out: P-ED20 (dosage which caused a 20% lowering of the mean blood pressure)
Procedure: Measurement of the Hypotensive Activity
The actions of the 6-nitroprostaglandin E1 derivatives of the invention on the blood pressure and heart beat rate of rats were examined by intravenous injection under anesthesia.
Male wister rats weighing about 250 g were used. Urethane (500 mg/kg) and α-chloralose (100 mg/kg) were intraperitoneally administered to the rats. The rats were anesthetized and fixed in place.
Each of the test compounds was dissolved in a small amount of ethanol and diluted with physiological saline to adjust the final ethanol concentration to not more than 5%. The solution was intravenously injected into the rats through a catheter inserted into the femoral vein.
The blood pressure of the rats were measured by a pressure transducer through a catheter inserted into the carotid artery of the rats. The heart beat rate was determined from the blood pressure pulse.
The action of the test compound on the blood pressure was expressed as the dosage (p-EDz20, μg/kg) of the test compound which caused a 20% lowering of the mean blood pressure before administration of the compound. The action of the test compound on the heart rate was expressed as the dosage (H-ED10, μg/kg) of the test compound which caused a 10% increase of the heart rate from the heart beat rate before administration of the test compound.

indomethacin ulcer = assay: Measurement of inhibitory activity on indomethacin ulcer; format: in vivo, rat (wistar-strain male rats); conditions: indomethacin 20 mg/kg oral, n=8
Procedure: Seven week-oil wistar-strain male rats (body weight 200 to 220 g) were fasted for 24 hours but water was provided freely, and then used in the following experiment.
Each of the test compounds suspended in phosphate Buffers (pH 7.4) was orally administered to the rats, and 30 minutes later, indomethacin was orally administered in a dose of 20 mg/kg. Six hours later, the animals were sacrificed. The abdomen was cut open, and the stomach was removed. 1% Even's blue was injected in an amount of 0.5 ml/rat into the rats through the tail vein under ether anesthesia 10 minutes before sacrificing.
12 ml of a 1% formalin was injected into the stomach and the stomach was further dipped in 1% formaline for about 10 minutes for the fixation. The stomach was cut open on the side of the greater curvature, and spread on a glass plate. The lengths of ulcers generated in the glandular stomach were measured by using a solid microscope. The sum of the lengths of the ulcers for each nimal was used as the ulcer index. The ulcer inhibiting ratio of the test compound was calculated in accordance with the following equation. [formula]
The control group was given phosphate buffer saline (pH 7.4) indomethacin alone.

Row | Compound | IC50 (platelet aggregation) [µg/mL] | ED10 [1] [mg/kg] | ED20 [1] [mg/kg] | Inhibition (ulcer inhibiting ratio) (indomethacin ulcer; 3 μg/kg oral) [%] | Ulcer index (indomethacin ulcer; 3 μg/kg oral) [mm] | Inhibition (ulcer inhibiting ratio) (indomethacin ulcer; 10 μg/kg oral) [%] | Ulcer index (indomethacin ulcer; 10 μg/kg oral) [mm] | Inhibition (ulcer inhibiting ratio) (indomethacin ulcer; 30 μg/kg oral) [%] | Ulcer index (indomethacin ulcer; 30 μg/kg oral, **P < 0.01) [mm]
1 | CCCCC[C@H](O)/C=C/[C@H]1[C@H](O)CC(=O)[C@@H]1CC(CCCCC(=O)OC)[N+](=O)[O-] (stereo partly drawn) [6-nitroprostaglandin E1 methyl ester] | 4.5 (≈ 10.9 µM) | > 0.01 | 0.01 | – | – | – | – | – | –
2 | CCCC[C@H](C)C[C@H](O)/C=C/[C@H]1[C@H](O)CC(=O)[C@@H]1CC(CCCCC(=O)OC)[N+](=O)[O-] (stereo partly drawn) [17(S),20-dimethyl-6-nitroprostaglandin E1 methyl ester] | 0.017 (≈ 0.0385 µM) | > 0.01 | 0.0004 | 12.6 | 12.5 ± 3.2 | 51.0 | 7.0 ± 1.8 | 80.4 | 2.8 ± 1.2
